{
  "source": "patent EP3335699A1",
  "about": "“SELEXIPAG FORMULATION IN LIQUISOLID SYSTEM” (H e x a l Aktiengesellschaft, priority 2016, dated 2018)",
  "origin": "cited, not measured here",
  "details": "low solubility and low permeability; b10 refers to crystalline forms",
  "data": [
    {"compound": "CC(C)N(CCCCOCC(=O)NS(C)(=O)=O)c1cnc(-c2ccccc2)c(-c2ccccc2)n1", "note": "[selexipag]", "values": [
      {"measurement": "BCS (Biopharmaceutics Classification System) class", "value": "class IV"}
    ]}
  ]
}
